Columns and labels:
Type in all cases: toxicity, cell-based
HEK-293T = assay: Incucyte cell viability with HEK293T; conditions: human, 24 h, 10 µM, compound concentration 10 uM
Fibroblast = assay: Incucyte cell viability with human fibroblast; conditions: 24 h, 10 µM, compound concentration 10 uM
U2OS = assay: Incucyte cell viability with U2OS; conditions: human, 24 h, 10 µM, compound concentration 10 uM
Further: unitless GR value; below 1 slowed growth and below 0 cell loss.

SMILES | Growth Rate (HEK-293T; replicate number 1) | Growth Rate (Fibroblast; replicate number 1) | Growth Rate (Fibroblast; replicate number 2) | Growth Rate (U2OS; replicate number 1) | Growth Rate (U2OS; replicate number 2) | Growth Rate (HEK-293T; replicate number 2)
Nc1ccccc1NC(=O)c1ccc(CNC(=O)OCc2cccnc2)cc1 [ENTINOSTAT] | 1 | -0.02 | 0.43 | -0.2 | 0.57 | 
COC(=O)[C@@H]1CC2=CC(=O)CC[C@]2(C)[C@@]23O[C@@H]2C[C@@]2(C)[C@@H](CC[C@@]24CCC(=O)O4)[C@H]13 [EPLERENONE] | 0.61 | 0.25 | 1 | 1 |  | 0.95
CC(=O)N1CCN([C@H]2CCC[C@@H](NC(=O)c3cc4c(F)ccc(C)c4[nH]3)C2)CC1 [EZM-0414] | 0.77 | 0.85 | 0.56 | 0.87 | 0.93 | 0.94
COc1cc(Nc2ncc(F)c(Nc3ccc4c(n3)N(COP(=O)([O-])[O-])C(=O)C(C)(C)O4)n2)cc(OC)c1OC.O.O.O.O.O.O.[Na+].[Na+] [FOSTAMATINIB DISODIUM] | 0.05 | 0.41 | -0.16 | -0.2 | -0.05 | 0.51
C[C@]12CC[C@@H]3c4ccc(O)cc4C[C@@H](CCCCCCCCC[S+]([O-])CCCC(F)(F)C(F)(F)F)[C@H]3[C@@H]1CC[C@@H]2O (stereo partly drawn) [FULVESTRANT] | 0.5 | 1 |  | 0.86 | 0.65 | 0.53
C=C(C)[C@@H](CC=C(C)C)C[C@@]12C[C@@H](CC=C(C)C)C(C)(C)[C@@](CC=C(C)C)(C(=O)C(C(=O)c3ccc(O)c(O)c3)=C1O)C2=O [GARCINOL] | 0.69 | 0.23 | 1 | 1 | 0.75 | 0.83
O=C(NO)c1ccc(CN(c2cnccn2)c2cnccn2)cc1 [KA-2507] | 1 | 1 | 0.97 | -0.27 | 0.83 | 
C[C@]12O[C@H](C[C@]1(O)CO)n1c3ccccc3c3c4c(c5c6ccccc6n2c5c31)CNC4=O [LESTAURTINIB] | 0.16 | 1 |  | 0.59 | 0.46 | 0.41
CCNC(=O)c1noc(-c2cc(C(C)C)c(O)cc2O)c1-c1ccc(CN2CCOCC2)cc1 [LUMINESPIB] | -0.29 | -0.02 | -0.27 | -0.21 | 0 | -0.15
CNc1ncc2cc(-c3cc(NC(=O)NCCC(C)(C)C)c(F)cc3C)c(C)nc2n1 [LY-3009120] | 0.3 | -0.76 | -0.55 | -0.28 | 0.07 | 0.63
CC#C[C@]1(O)CC[C@H]2[C@@H]3CCC4=CC(=O)CCC4=C3[C@@H](c3ccc(N(C)C)cc3)C[C@@]21C [MIFEPRISTONE] | 0.49 | 1 |  | 0.84 | 0.66 | 1
Nc1ccccc1NC(=O)c1ccc(CNc2nccc(-c3cccnc3)n2)cc1 [MOCETINOSTAT] | 0.33 | 1 | -0.28 | -0.13 | 0.28 | 0.39
CCCCN(Cc1ccc(C(=O)NO)cc1)C(=O)Nc1ccccc1 [NEXTURASTAT A] | 1 | 1 | -0.22 | -0.18 | 0.6 | 
CC(C)(F)C[C@H](N[C@@H](c1ccc(-c2ccc(S(C)(=O)=O)cc2)cc1)C(F)(F)F)C(=O)NC1(C#N)CC1 [ODANACATIB] | 0.9 | 0.39 | 1 | 0.65 | 1 | 0.87
CC(C)c1cc(C(=O)N2Cc3ccc(CN4CCN(C)CC4)cc3C2)c(O)cc1O [ONALESPIB] | -0.26 | 0.29 | 0.25 | -0.07 | 0.05 | -0.15
Nc1nc2cc(CC[C@H]3C[C@@H](n4ccc5c(N)ncnc54)[C@H](O)[C@@H]3O)ccc2cc1Br [ONAMETOSTAT] | -0.14 | 0.43 | 0.06 | 0.19 | 1 | -0.01
COc1ccc2c(c1)OC(C)(C)C(c1ccccc1)C2c1ccc(OCCN2CCCC2)cc1 (stereo not drawn) [ORMELOXIFENE] | 0.93 | 1 | 0.9 | 1 | 0.75 | 0.92
CC(=O)N1CCC(Nc2cc(C(=O)NC[C@H](O)CN3CCc4ccccc4C3)ncn2)CC1 [PEMRAMETOSTAT] | 0.9 | 1 |  | 0.26 | 1 | 1
CC(C)N(C[C@H]1O[C@@H](n2cnc3c(N)ncnc32)[C@H](O)[C@@H]1O)[C@H]1C[C@@H](CCc2nc3cc(C(C)(C)C)ccc3[nH]2)C1 [PINOMETOSTAT] | 0.61 | 1 |  | 1 | 0.85 | 0.77
COc1cc(Nc2ncc(F)c(Nc3ccc4c(n3)NC(=O)C(C)(C)O4)n2)cc(OC)c1OC [R-406] | 0.1 | -0.02 | -0.68 | -0.31 | -0.21 | 0.27
O=C(CCCCCCNC(=O)c1cnc(N(c2ccccc2)c2ccccc2)nc1)NO [RICOLINOSTAT] | 0.73 | 0.23 | -0.16 | 0 | 0.16 | 1
C/C=C1\NC(=O)[C@H]2CSSCC/C=C/[C@H](CC(=O)N[C@H](C(C)C)C(=O)N2)OC(=O)[C@H](C(C)C)NC1=O [ROMIDEPSIN] | 0.73 | 0.96 | -0.41 | 1 | 0.29 | 
Nc1ncnc2c1ncn2[C@@H]1O[C@H](C[C@@H](N)CC[C@H](N)C(=O)O)[C@@H](O)[C@H]1O [SINEFUNGIN] | 0.85 | 0.66 | -0.28 | 0.54 | 1 | 0.88
Cc1ccc(C(=O)Nc2ccc(S(=O)(=O)[O-])c3cc(S(=O)(=O)[O-])cc(S(=O)(=O)[O-])c23)cc1NC(=O)c1cccc(NC(=O)Nc2cccc(C(=O)Nc3cc(C(=O)Nc4ccc(S(=O)(=O)[O-])c5cc(S(=O)(=O)[O-])cc(S(=O)(=O)[O-])c45)ccc3C)c2)c1.[Na+].[Na+].[Na+].[Na+].[Na+].[Na+] [SURAMIN HEXASODIUM] | 0.7 | 0.42 | 0.59 | 1 |  | 0.83
CCN(c1cc(-c2ccc(CN3CCOCC3)cc2)cc(C(=O)NCc2c(C)cc(C)[nH]c2=O)c1C)C1CCOCC1 [TAZEMETOSTAT] | 0.68 | 0.54 |  | 0.43 | 0.87 | 0.82
O=C(CCCCCCC(=O)Nc1ccc([C@H]2O[C@@H](CSc3nc(-c4ccccc4)c(-c4ccccc4)o3)C[C@@H](c3ccc(CO)cc3)O2)cc1)NO [TUBACIN] | 0.85 | 1 | -0.34 | 1 | 0.73 | 1
Nc1cc(F)ccc1NC(=O)c1ccc(CNC(=O)/C=C/c2cccnc2)cc1 [TUCIDINOSTAT] | 1 | 1 |  | -0.5 | 0.82 | 

Reference: ChEMBL document CHEMBL5724709, “EUbOPEN Chemogenomics Library - IncuCyte” (2024)
